Results: BindingDB's records for doi:10.1016/j.ejmech.2013.06.048 (University of Siena, 2013)

Assay: Inhibition of estrogen receptor alpha-mediated human MCF7 cell growth inhibition

Compound	IC50
COc1ccc2c(c1)CC[C@@H]1[C@@H]2CC[C@]2(C)[C@@H](OC(C)=O)CC[C@@H]12	64.9 µM
COc1cc(C(=O)CCc2cc3c(cc2OC)CC[C@@H]2[C@@H]3CC[C@]3(C)[C@@H](O)CC[C@@H]23)ccc1O	64.9 µM
COc1cc2c(cc1C=O)[C@H]1CC[C@]3(C)[C@@H](OC(C)=O)CC[C@H]3[C@@H]1CC2	64.9 µM
